Source: article PMC13366377 (Acta Pharmaceutica Sinica. B, 2025)
Positions of bridges follow the written chain, without caps; N, C: chain ends. Non-standard residues stand in square brackets, D forms with d. Residues, ends and D or L forms follow the SMILES beside them. pGlu = O=C1CC[C@@H](C(=O)O)N1

Tests used:
hα7 nAChR = hα7 nAChR (Homo sapiens, UniProt P36544); experiment: cell-based
α7^EM nAChR = α7^EM nAChR (Homo sapiens, UniProt P36544); experiment: cell-based; format: cell-based
α7^EM nAChR S56A = α7^EM nAChR S56A (Homo sapiens, UniProt P36544, S56A, form not given); format: cell-based; details: read-out: IC50 at α7^EM nAChR mutant S56A
Chain of α7^EM nAChR S56A (P36544 23-502 S56A, form open): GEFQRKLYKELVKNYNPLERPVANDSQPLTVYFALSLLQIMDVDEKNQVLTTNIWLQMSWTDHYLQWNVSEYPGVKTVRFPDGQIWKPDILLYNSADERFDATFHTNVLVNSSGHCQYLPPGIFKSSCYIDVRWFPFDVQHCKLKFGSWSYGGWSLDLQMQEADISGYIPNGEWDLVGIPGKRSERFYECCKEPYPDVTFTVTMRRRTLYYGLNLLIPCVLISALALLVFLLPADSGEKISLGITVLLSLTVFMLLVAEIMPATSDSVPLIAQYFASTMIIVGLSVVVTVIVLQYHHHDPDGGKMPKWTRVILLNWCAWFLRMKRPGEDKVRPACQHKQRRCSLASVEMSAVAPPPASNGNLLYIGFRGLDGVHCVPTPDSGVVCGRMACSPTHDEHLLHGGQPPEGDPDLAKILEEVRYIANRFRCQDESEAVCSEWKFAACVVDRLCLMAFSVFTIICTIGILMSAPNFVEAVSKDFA

α7^EM nAChR Q139E = α7^EM nAChR Q139E (Homo sapiens, UniProt P36544, Q139E, form not given); format: cell-based; details: read-out: IC50 at α7^EM nAChR mutant Q139E
Chain of α7^EM nAChR Q139E (P36544 23-502 Q139E, form open): as the sequence (P36544 23-502 S56A, form open) above, with A34S, Q117E counted along it

α7^EM nAChR R208A = α7^EM nAChR R208A (Homo sapiens, UniProt P36544, R208A, form not given); format: cell-based; details: read-out: IC50 at α7^EM nAChR mutant R208A
Chain of α7^EM nAChR R208A (P36544 23-502 R208A, form open): as the sequence (P36544 23-502 S56A, form open) above, with A34S, R186A counted along it

α7^EM nAChR E184Q = α7^EM nAChR E184Q (Homo sapiens, UniProt P36544, E184Q, form not given); format: cell-based; details: read-out: IC50 at α7^EM nAChR mutant E184Q
Chain of α7^EM nAChR E184Q (P36544 23-502 E184Q, form open): as the sequence (P36544 23-502 S56A, form open) above, with A34S, E162Q counted along it

in vitro = details: human, serum

Chain of hα7 nAChR (P36544 23-502): as the sequence (P36544 23-502 S56A, form open) above, with A34S counted along it
Chain of α7^EM nAChR (P36544 23-233 limits assumed): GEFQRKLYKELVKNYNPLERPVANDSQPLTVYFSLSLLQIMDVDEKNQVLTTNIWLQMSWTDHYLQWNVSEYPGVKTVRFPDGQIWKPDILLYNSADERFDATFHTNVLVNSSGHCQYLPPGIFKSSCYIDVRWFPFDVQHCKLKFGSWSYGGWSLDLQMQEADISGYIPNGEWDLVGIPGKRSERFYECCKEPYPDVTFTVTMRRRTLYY

**Q.** With `N=C(N)NCCC[C@@H]1NC(=O)[C@H](CO)NC(=O)[C@H](Cc2c[nH]c3ccccc23)NC(=O)[C@H](Cc2c[nH]c3ccccc23)NC(=O)[C@H](CCCNC(=N)N)NC(=O)[C@@H](NC(=O)[C@H](CCCNC(=N)N)NC(=O)[C@@H]2CCCN2C(=O)[C@@H](N)CCC(N)=O)CSSC[C@@H](C(N)=O)NC(=O)[C@H](Cc2c[nH]c3ccccc23)NC1=O` [[G3R]SS1] (H-QPRCRWWSRWC-NH2; disulfide 4-11) as the compound, how does the “potency at hα7 nAChR relative to parent peptide (in words)” value (hα7 nAChR) read?
**A.** no significant differences

**Q.** Which “potency at hα7 nAChR relative to parent peptide (in words)” value (hα7 nAChR) does the source give for `N=C(N)NCCC[C@@H]1NC(=O)[C@@H](NC(=O)CNC(=O)[C@H](CCCNC(=N)N)NC(=O)[C@@H](N)CCC(N)=O)CSSC[C@@H](C(N)=O)NC(=O)[C@H](Cc2c[nH]c3ccccc23)NC(=O)[C@H](CCCNC(=N)N)NC(=O)[C@H](CO)NC(=O)[C@H](Cc2c[nH]c3ccccc23)NC(=O)[C@H](Cc2c[nH]c3ccccc23)NC1=O` [[P2R]SS1] (H-QRGCRWWSRWC-NH2; disulfide 4-11) here?
**A.** no significant differences

**Q.** For `N=C(N)NCCC[C@@H]1NC(=O)[C@@H](NC(=O)CNC(=O)[C@@H]2CCCN2C(=O)[C@@H](N)CCC(=O)O)CSSC[C@@H](C(N)=O)NC(=O)[C@H](Cc2c[nH]c3ccccc23)NC(=O)[C@H](CCCNC(=N)N)NC(=O)[C@H](CCCNC(=N)N)NC(=O)[C@H](Cc2c[nH]c3ccccc23)NC(=O)[C@H](Cc2c[nH]c3ccccc23)NC1=O` [[Q1E, S8R]SS1] (H-EPGCRWWRRWC-NH2; disulfide 4-11), which IC50 (α7^EM nAChR) is on record?
**A.** 0.364 ± 0.103 µM

**Q.** And the “increase in potency versus [S8R]SS1 at α7^EM nAChR” value (α7^EM nAChR)?
**A.** 1.8 fold

**Q.** Which IC50 (α7^EM nAChR) does the source give for `N=C(N)NCCC[C@@H]1NC(=O)[C@@H](NC(=O)CNC(=O)[C@@H]2CCCN2C(=O)[C@@H]2CCC(=O)N2)CSSC[C@@H](C(N)=O)NC(=O)[C@H](Cc2c[nH]c3ccccc23)NC(=O)[C@H](CCCNC(=N)N)NC(=O)[C@H](CCCNC(=N)N)NC(=O)[C@H](Cc2c[nH]c3ccccc23)NC(=O)[C@H](Cc2c[nH]c3ccccc23)NC1=O` [[Q1Pyr, S8R]SS1] ([pGlu]PGCRWWRRWC-NH2; disulfide 4-11) here?
**A.** 1.39 ± 0.26 µM

**Q.** With `N=C(N)NCCC[C@@H]1NC(=O)[C@@H](NC(=O)CNC(=O)[C@@H]2CCCN2C(=O)[C@@H](N)CCCNC(=N)N)CSSC[C@@H](C(N)=O)NC(=O)[C@H](Cc2c[nH]c3ccccc23)NC(=O)[C@H](CCCNC(=N)N)NC(=O)[C@H](CCCNC(=N)N)NC(=O)[C@H](Cc2c[nH]c3ccccc23)NC(=O)[C@H](Cc2c[nH]c3ccccc23)NC1=O` [[Q1R, S8R]SS1] (H-RPGCRWWRRWC-NH2; disulfide 4-11) as the compound, how does the IC50 (α7^EM nAChR) read?
**A.** 0.136 ± 0.0278 µM

**Q.** And the “increase in potency versus [S8R]SS1 at α7^EM nAChR” value (α7^EM nAChR)?
**A.** 4.8 fold

**Q.** For `N=C(N)NCCC[C@@H]1NC(=O)[C@@H](NC(=O)CNC(=O)[C@@H]2CCCN2C(=O)[C@@H](N)CCCNC(=N)N)CSSC[C@@H](C(N)=O)NC(=O)[C@H](Cc2c[nH]c3ccccc23)NC(=O)[C@H](CCCNC(=N)N)NC(=O)[C@H](CO)NC(=O)[C@H](Cc2c[nH]c3ccccc23)NC(=O)[C@H](Cc2c[nH]c3ccccc23)NC1=O` [[Q1R]SS1] (H-RPGCRWWSRWC-NH2; disulfide 4-11), which “potency at hα7 nAChR relative to parent peptide (in words)” value (hα7 nAChR) is on record?
**A.** no significant differences

**Q.** With `N=C(N)NCCC[C@@H]1NC(=O)[C@@H](NC(=O)CNC(=O)[C@@H]2CCCN2C(=O)[C@@H](N)CCC(N)=O)CSSC[C@@H](C(N)=O)NC(=O)[C@H](Cc2c[nH]c3ccccc23)NC(=O)[C@H](CCCNC(=N)N)NC(=O)[C@H](CCCNC(=N)N)NC(=O)[C@H](Cc2c[nH]c3ccccc23)NC(=O)[C@H](Cc2c[nH]c3ccccc23)NC1=O` [[S8R]SS1] (H-QPGCRWWRRWC-NH2; disulfide 4-11) as the compound, how does the IC50 (α7^EM nAChR S56A) read?
**A.** 0.234 ± 0.0361 µM

**Q.** And the IC50 (α7^EM nAChR)?
**A.** 0.659 ± 0.0929 µM

**Q.** And the IC50 (α7^EM nAChR Q139E)?
**A.** 0.852 ± 0.0663 µM

**Q.** What about the IC50 (α7^EM nAChR R208A) of the same compound?
**A.** 1.93 ± 0.196 µM

**Q.** What about the IC50 (α7^EM nAChR E184Q) of the same compound?
**A.** 0.555 ± 0.0999 µM

**Q.** For `N=C(N)NCCC[C@@H]1NC(=O)[C@@H](NC(=O)CNC(=O)[C@@H]2CCCN2C(=O)[C@@H](N)CCC(N)=O)CSSC[C@@H](C(N)=O)NC(=O)[C@H](Cc2c[nH]c3ccccc23)NC(=O)[C@H](CCCNC(=N)N)NC(=O)[C@H](CCCNC(=N)N)NC(=O)[C@H](Cc2c[nH]c3ccccc23)NC(=O)[C@H](CCCNC(=N)N)NC1=O` [[W6R, S8R]SS1] (H-QPGCRRWRRWC-NH2; disulfide 4-11), which “potency of [S8R]SS1 analogues at hα7 nAChR relative to [S8R]SS1 (in words)” value (hα7 nAChR; n = 8-10) is on record?
**A.** maintained potency

**Q.** Which “potency at hα7 nAChR relative to parent peptide (in words)” value (hα7 nAChR) does the source give for `N=C(N)NCCC[C@@H]1NC(=O)[C@@H](NC(=O)CNC(=O)[C@@H]2CCCN2C(=O)[C@@H](N)CCC(N)=O)CSSC[C@@H](C(N)=O)NC(=O)[C@H](Cc2c[nH]c3ccccc23)NC(=O)[C@H](CCCNC(=N)N)NC(=O)[C@H](CO)NC(=O)[C@H](Cc2c[nH]c3ccccc23)NC(=O)[C@H](CCCNC(=N)N)NC1=O` [[W6R]SS1] (H-QPGCRRWSRWC-NH2; disulfide 4-11) here?
**A.** completely lost potency

**Q.** With `N=C(N)NCCC[C@@H]1NC(=O)[C@@H](NC(=O)CNC(=O)[C@@H]2CCCN2C(=O)[C@@H](N)CCC(N)=O)CSSC[C@@H](C(N)=O)NC(=O)[C@H](Cc2c[nH]c3ccccc23)NC(=O)[C@H](CCCNC(=N)N)NC(=O)[C@H](CO)NC(=O)[C@H](CCCNC(=N)N)NC(=O)[C@H](Cc2c[nH]c3ccccc23)NC1=O` [[W7R]SS1] (H-QPGCRWRSRWC-NH2; disulfide 4-11) as the compound, how does the “potency at hα7 nAChR relative to parent peptide (in words)” value (hα7 nAChR) read?
**A.** no significant differences

**Q.** For `N=C(N)NCCC[C@@H]1NC(=O)[C@@H](NC(=O)CN)CSSC[C@@H](C(N)=O)NC(=O)[C@H](Cc2c[nH]c3ccccc23)NC(=O)[C@H](CCCNC(=N)N)NC(=O)[C@H](CCCNC(=N)N)NC(=O)[C@H](Cc2c[nH]c3ccccc23)NC(=O)[C@H](Cc2c[nH]c3ccccc23)NC1=O` [[ΔQP, S8R]SS1] (H-GCRWWRRWC-NH2; disulfide 2-9), which remaining at 24 h (in vitro) is on record?
**A.** 14%

**Q.** What about the IC50 (hα7 nAChR) of the same compound?
**A.** 0.0492 µM

**Q.** And the “increase in potency compared to SS1” value (hα7 nAChR)?
**A.** ~29 fold
